Experimental data: patent US4758566A, “2-(1-piperazinyl)-4-substituted phenylquinoline derivatives, processes for the preparation thereof, and pharmaceutical composition containing the same” (Dainippon Pharmaceutical Co., Ltd., priority 1984, dated 1988)

What was measured:
Male ddY mice = test: Acute toxicity, Test 5; assay type: in vivo, mouse (male ddY); settings: 7 days; for Number of dead animals/number of used animals: mouse
Text: Male ddY mice weighing 20 g to 25 g were used in groups of 10 animals each. Test compounds, dissolved or suspended in a 0.5% tragacanth solution, were orally administered at a prescribed dose to the animals.

[1] = tested on: hypothermia induced by reserpine; test: Antireserpine activity (antagonistic effect on hypothermia induced by reserpine), Test 4; assay type: in vivo, mouse (male ddY); settings: mouse
Experimental: Antireserpine activity (antagonistic effect on hypothermia induced by reserpine)
This test was carried out according to the method of Askew [cf. Life Sci., 2, 725 (1963)].
Male ddY mice weighing 22 g to 27 g were used in groups of 5 animals each. Test compounds were administered orally to the animals, and immediately 5 mg/kg of reserpine was injected intraperitoneally. Rectal temperature of each mouse was measured 4 hours later with a thermistor (Shibaura Electric, BMG III-130). The inhibitory rate was determined by comparing the fall of rectal temperature in drug-treated groups with that in control group. In the control group, a vehicle (a 0.5% tragacanth solution) was administered orally.

[2] = tested on: ulceration induced by exposure to stress (restraint and water immersion) in rats; test: Effect on the ulceration induced by exposure to stress (restraint and water immersion) in rats, Test 2; assay type: in vivo, rat (male Wistar); settings: stress-induced ulcer, rat, 10 mg/kg p.o.; for inhibition in vivo at 10 mg/kg: po, 20 h, read-out: Inhibitory rate
Experimental: Effect on the ulceration induced by exposure to stress (restraint and water immersion) in rats The effect evaluated by this test is considered to be fairly well correlative to inhibitory effect on gastric acid secretion. Male Wistar rats weighing about 200 g were used in groups of 5 animals each. According to the method of Takagi et al. [cf. Japan. […] After 20 hours, the animals were taken out from the water bath and sacrificed under ether anesthesia, and the stomachs were removed. The stomach was inflated with 13 ml of physiological saline and placed in a 5% formalin solution for 5 minutes. After washing with physiological saline, the stomach was cut along the greater curvature and the length (mm) of each lesion in the glandular portion was measured using a dissecting microscope (×12). The sum of the length (mm) of each lesion in a stomach was indicated as an ulcer index. The inhibitory rate was determined by comparing the ulcer index in drug-treated groups with that in control group. Test compounds were administered orally 30 minutes before the immersion. In the control group, a vehicle (a 0.5% tragacanth solution) was administered orally.

[3] = tested on: ulceration induced by ethanol in rats; test: Effect on the ulceration induced by ethanol in rats (gastric cytoprotection activity), Test 1; assay type: in vivo, rat (male Wistar); settings: ethanol-induced ulcer, rat
Experimental: Effect on the ulceration induced by ethanol in rats (gastric cytoprotection activity) This test was carried out according to the method of Robert [cf. […] Male Wistar rats weighing 190 g to 200 g were fasted for 24 hours and then given orally 1 ml of absolute ethanol. After 1 hour, the animals were sacrificed under ether anesthesia, and the stomachs were removed and cut along the greater curvature. The length (mm) of each lesion in the glandular portion was measured using a dissecting microscope (×12). The sum of the length (mm) of each lesion in a stomach was indicated as an ulcer index. The inhibitory rate was determined by comparing the ulcer index in drug-treated groups with that in control group. Test compounds were administered orally 30 minutes before the administration of ethanol. In the control group, a vehicle (a 0.5% tragacanth solution) was administered orally.

[4] = tested on: ulceration induced by pylorus-ligation (Shay ulcer) in rats; test: Effect on the ulceration induced by pylorus-ligation (Shay ulcer) in rats, Test 3; assay type: in vivo, rat (male Wistar); settings: rat; for Ulcer index: index of 0 to 5
Experimental: Effect on the ulceration induced by pylorus-ligation (Shay ulcer) in rats […] The portion between pylorus and duodenum of each rat was ligated under ether anesthesia according to the method of Shay et al. […] Each of the animals was then allowed to stand abstained from food and water in a cage. After 18 hours, the animals were sacrificed under ether anesthesia, and the stomachs were removed and cut along the greater curvature. […] 0: no lesion 1: hemorrhage or erosion […] The inhibitory rate was determined by comparing the ulcer index in drug-treated groups with that in the control group. […] Test compounds were administered orally 30 minutes before the ligation. In the control group, a vehicle (a 0.5% tragacanth solution) was administered orally.

[5] = U.S. Pat. No. 4,237,135; cited from earlier work
[6] = U.S. Pat. No. 4,237,135; cited from earlier work; remark: listed apart in the source
[7] = U.S. Pat. No. 4,237,135; cited from earlier work; remark: listed apart in the source
[8] = U.S. Pat. Nos. 3,542,785 and 3,668,207; cited from earlier work
[9] = U.S. Pat. Nos. 3,542,785 and 3,668,207; cited from earlier work; remark: listed apart in the source
[10] = po, 1 h, 10 mg/kg p.o., read-out: Inhibitory rate

Question: Which “death of mouse (in words)” value (Male ddY mice; 250 mg/kg p.o.) does the source give for Cl.Cl.OCCN1CCN(c2cc(-c3ccc(F)cc3)c3ccccc3n2)CC1 [A, 2-[4-(2-hydroxyethyl)-1-piperazinyl]-4-(4-fluorophenyl)quinoline dihydrochloride] here?
Answer: The value was “death of mouse was not observed”.

Question: What about the “Number of dead animals/number of used animals” value (Male ddY mice; 250 mg/kg p.o.) of the same compound?
Answer: Its value is 0/10.

Question: What about the “Number of dead animals/number of used animals” value (Male ddY mice; 500 mg/kg p.o.) of the same compound?
Answer: The value was 2/10.

Question: What about the “Number of dead animals/number of used animals” value (Male ddY mice; 1000 mg/kg p.o.) of the same compound?
Answer: Its value is 5/10.

Question: What about the Inhibitory rate ([1]; 50 mg/kg p.o.) of the same compound?
Answer: Its Inhibitory rate is 20.6%.

Question: And the Inhibitory rate ([1]; 100 mg/kg p.o.)?
Answer: Its Inhibitory rate is 65.5%.

Question: What about the inhibition in vivo at 10 mg/kg [2] of the same compound?
Answer: The inhibition in vivo at 10 mg/kg was 69.2%.

Question: And the Ulcer index [2]?
Answer: Its Ulcer index is 7.4 ± 3.6 mm.

Question: And the Ulcer index ([3]; 5 mg/kg p.o.)?
Answer: Its Ulcer index is 31.6 ± 11.3 mm.

Question: And the Ulcer index ([3]; 10 mg/kg p.o.)?
Answer: Its Ulcer index is 9.8 ± 2.9 mm.

Question: And the Ulcer index ([3]; 20 mg/kg p.o.)?
Answer: The Ulcer index was 9.2 ± 4.1 mm.

Question: And the inhibition in vivo at 5 mg/kg ([3]; po, 1 h, 5 mg/kg p.o., read-out: Inhibitory rate)?
Answer: Its inhibition in vivo at 5 mg/kg is 33.9%.

Question: What about the inhibition in vivo at 10 mg/kg [3, 10] of the same compound?
Answer: The inhibition in vivo at 10 mg/kg was 79.5%.

Question: And the inhibition in vivo at 20 mg/kg ([3]; po, 1 h, 20 mg/kg p.o., read-out: Inhibitory rate)?
Answer: The inhibition in vivo at 20 mg/kg was 80.8%.

Question: What about the Inhibitory rate ([4]; Shay ulcer, 10 mg/kg p.o.) of the same compound?
Answer: The Inhibitory rate was 33.3%.

Question: And the Ulcer index ([4]; Shay ulcer, 10 mg/kg p.o.)?
Answer: The Ulcer index was 2.4 ± 0.4.

Question: What about the Inhibitory rate ([4]; Shay ulcer, 20 mg/kg p.o.) of the same compound?
Answer: Its Inhibitory rate is 44.4%.

Question: And the Ulcer index ([4]; Shay ulcer, 20 mg/kg p.o.)?
Answer: The Ulcer index was 2 ± 0.8.

Question: And the Inhibitory rate ([4]; Shay ulcer, 50 mg/kg p.o.)?
Answer: Its Inhibitory rate is 61.1%.

Question: And the Ulcer index ([4]; Shay ulcer, 50 mg/kg p.o.)?
Answer: Its Ulcer index is 1.4 ± 0.2.

Question: And the Inhibitory rate ([4]; Shay ulcer, 100 mg/kg p.o.)?
Answer: Its Inhibitory rate is 66.7%.

Question: What about the Ulcer index ([4]; Shay ulcer, 100 mg/kg p.o.) of the same compound?
Answer: The Ulcer index was 1.2 ± 0.2.

Question: And the ED50 ([4]; po, 18 h, Shay ulcer, graphic method, read-out: ED50 (dose required to inhibit ulcer index by 50%))?
Answer: Its ED50 is 26.5 mg/kg.

Question: And the “potency relative to cimetidine in preventive effect on Shay ulcer” value ([4]; p.o., vs cimetidine)?
Answer: The value was “about 10 times”.

Question: For CCN1CCN(c2cc(-c3ccccc3)c3ccccc3n2)CC1 [2-(4-ethyl-1-piperazinyl)-4-phenylquinoline], which antireserpine activity [5] is on record?
Answer: Its antireserpine activity is “have an antireserpine activity”.

Question: And the “inhibitory effect on spontaneous locomotor activity” value [6]?
Answer: Its value is “inhibitory effect on spontaneous locomotor activity”.

Question: And the antitremorine activity [7]?
Answer: The antitremorine activity was “have also antitremorine activity”.

Question: For CN1CCN(c2cc(-c3ccccc3)c3cc(Cl)ccc3n2)CC1 [6-chloro-2-(4-methyl-1-piperazinyl)-4-phenylquinoline], which antiinflammatory activity [8] is on record?
Answer: The antiinflammatory activity was “have antiinflammatory and diuretic activities”.

Question: What about the diuretic activity [9] of the same compound?
Answer: The diuretic activity was “have antiinflammatory and diuretic activities”.

Question: For O=C(O)/C=C\C(=O)O.O=C(O)/C=C\C(=O)O.OCCCN1CCN(c2cc(-c3ccc(F)cc3)c3ccccc3n2)CC1 [B, 2-[4-(3-hydroxypropyl)-1-piperazinyl]-4-(4-fluorophenyl)quinoline dimaleate], which Inhibitory rate ([1]; 100 mg/kg p.o.) is on record?
Answer: Its Inhibitory rate is 59.4%.

Question: And the inhibition in vivo at 10 mg/kg [2]?
Answer: The inhibition in vivo at 10 mg/kg was 61.7%.

Question: And the Ulcer index [2]?
Answer: The Ulcer index was 7.4 ± 1.2 mm.

Question: And the Ulcer index ([3]; 10 mg/kg p.o.)?
Answer: Its Ulcer index is 21.9 ± 12.1 mm.

Question: And the inhibition in vivo at 10 mg/kg [3, 10]?
Answer: The inhibition in vivo at 10 mg/kg was 69.2%.
